According to article PMC6072100, “Exploring the links between peptoid antibacterial activity and toxicity” (MedChemComm, 2017):
Read-outs that look alike come from different tables or passages of the source. Square brackets hold non-standard residues; d marks the D form. Ends that are not written are not given here. Peptide text beside a SMILES is read from it. Nspe = C[C@H](NCC(=O)O)c1ccccc1; NhArg = N=C(N)NCCCCNCC(=O)O; Nphe = O=C(O)CNCc1ccccc1; Nlys = NCCCCNCC(=O)O

Columns and labels:
[1] = test system: Escherichia coli K-12 wild-type strain (W3110/ATCC27325); format: cell-based; conditions: lowest concentration completely inhibiting growth, 37 °C, 16 h; range 2–100 μM
Experimental: (§1) Escherichia coli K-12 wild-type strain (W3110/ATCC27325, F^–, λ^–, rpoS(Am), rph-1, Inv(rrnD-rrnE)), Pseudomonas aeruginosa PA01 (ATCC 15692) Staphylococcus aureus (3R7089 strain Oxford/ATCC9144) and Staphylococcus epidermidis (laboratory strain from clinical isolate) were selected for bacteriological studies as representative Gram-negative (E. coli and P. aeruginosa) and Gram-positive (S. aureus and S. epidermidis) species. Bacterial cultures were prepared by streaking bacterial strains onto LB agar plates with an inoculation loop and incubated overnight at 37 °C. A single colony was selected and placed in 5 mL of Iso-sensitest broth (Oxoid, ThermoScientific) and incubated with shaking for 16–18 h at 37 °C to provide liquid cultures for testing.
(§2) MIC values were obtained according to the protocol described by J. M. Andrews et al.[58] and were conducted in 96-well plates (Sarstedt). Bacteria were grown from overnight cultures in Iso-sensitest broth to an A650nm of 0.07 equivalent to a 0.5 MacFarland standard (240 μM BaCl2 in 0.18 M H2SO4). This culture was diluted ten-fold with Iso-sensitest broth before use. Peptoids were initially dissolved in DMSO (5 mM) and diluted further in Iso-sensitest broth to achieve a concentration range of 4–200 μM using 2-fold serial dilutions. 50 μl of inoculum and 50 μl of peptoid solution were added to each test well (final concentration range of 2–100 μM). Experiments were performed in triplicate. A positive control for bacterial growth contained only the inoculum and Iso-sensitest broth. Other controls contained the inoculum and serial dilutions of ampicillin (from 250 μg mL^–1 to 2 μg mL^–1), serial dilutions of DMSO and the inoculum to confirm no inhibitory effect on bacterial growth, and Iso-sensitest broth alone as a sterile control. […] Quantitative data was attained from absorbance values using a Biotek Synergy H4 plate reader.
(§3) Antibacterial MIC determination
as §1, with “(W3110 / ATCC27325, F-, λ-,” for “(W3110/ATCC27325, F^–, λ^–,”, “Oxford / ATCC9144)” for “Oxford/ATCC9144)”, “°C.” for “°C. A single colony was selected and placed in 5 mL of Iso-sensitest broth (Oxoid, ThermoScientific) and incubated with shaking for 16–18 h at 37 °C to provide liquid cultures for testing.”
(§4) A single colony was selected and placed in 5 mL of Iso-sensitest broth (Oxoid, ThermoScientific) and incubated with shaking for 16-18 h at 37 °C to provide liquid […]
(§5) MIC values were obtained according to the protocol described by J. M. Andrews et al.1 and were conducted in 96-well plates (Sarstedt). Bacteria were grown from overnight cultures in Iso-sensitest broth to an A650nm of 0.07 equivalent to a 0.5 MacFarland standard (240 μM BaCl2 in 0.18 M H2SO4). This culture was diluted ten-fold with Iso-sensitest broth before use. Peptoids were initially dissolved in DMSO (5 mM) and diluted further in Iso-sensitest broth to achieve a concentration range of 4 – 200 µM using 2-fold serial dilutions. 50 μl of inoculum and 50 μl of peptoid solution were added to each test well (final concentration range of 2 – 100 µM). Experiments were performed in triplicate. A positive control for bacterial growth contained only the inoculum and Iso-sensitest broth. Other controls contained the inoculum and serial dilutions of ampicillin (from 250 µg/mL to 2 µg/mL), serial dilutions of DMSO and the inoculum to confirm no inhibitory effect on bacterial growth, and Iso-sensitest broth alone as a sterile control. […]
(§6) growth after incubation at 37 °C for 16 h with shaking. Quantitative data was attained from absorbance values using a Biotek Synergy H4 plate reader.

[2] = test system: Staphylococcus epidermidis (laboratory strain from clinical isolate); format: cell-based; conditions: lowest concentration completely inhibiting growth, 37 °C, 16 h; range 2–100 μM
Experimental: as §1, §2, §3
as §1, with “(W3110 / ATCC27325, F-, λ-,” for “(W3110/ATCC27325, F^–, λ^–,”, “Oxford / ATCC9144)” for “Oxford/ATCC9144)”, “°C.” for “°C. A single colony was selected and placed in 5 mL of Iso-sensitest broth (Oxoid, ThermoScientific) and incubated with shaking for 16–18 h at 37 °C to provide liquid cultures for testing.”
as §4, §5, §6

[3] = test system: Pseudomonas aeruginosa PA01 (ATCC 15692); format: cell-based; conditions: lowest concentration completely inhibiting growth, 37 °C, 16 h; range 2–100 μM
Experimental: as §1, §2, §3
as §1, with “(W3110 / ATCC27325, F-, λ-,” for “(W3110/ATCC27325, F^–, λ^–,”, “Oxford / ATCC9144)” for “Oxford/ATCC9144)”, “°C.” for “°C. A single colony was selected and placed in 5 mL of Iso-sensitest broth (Oxoid, ThermoScientific) and incubated with shaking for 16–18 h at 37 °C to provide liquid cultures for testing.”
as §4, §5, §6

[4] = test system: HaCaT cells; assay: Skin cell toxicity assay with HaCaT (alamarBlue); format: cell-based, human; conditions: human, HaCaT cells (keratinocytes), 24 h
Experimental: (§7) The activity of our peptoid library was assessed against both bacterial and mammalian cells to gain a broader understanding of the factors that lead to effective and selective antimicrobial peptoids. We screened for broad-spectrum antibacterial activity against Gram-negative (Escherichia coli and Pseudomonas aeruginosa) and Gram-positive (Staphylococcus aureus and S. epidermidis) bacteria. The toxicity of the library was also assessed against two mammalian cell lines; HaCaT spontaneously transformed aneuploid keratinocytes were employed to model toxicity against human skin cells and HepG2, a cell line derived from a human liver carcinoma, were used as a study on polarised human hepatocytes. Detailed methods for these assays can be found in the ESI. ^‡ […]
(§8) Please note – ED50, the median effective dose, was defined as the dose that kills 50% of cells.
(§9) Cytotoxicity analyses were performed in 96-well plates (Costar, Fisher Scientific) using alamarBlue® (Invitrogen) for cell viability detection using a modified protocol as described previously. HepG2 or HaCaT cells were subcultured at 37 °C, 5% CO2 in DMEM high glucose supplemented with heat-inactivated foetal bovine sera (FBS, 10%; Biosera Ltd) and penicillin/streptomycin (P/S, 1%). Cells were counted using a Neubauer Improved Haemocytometer. HepG2 cells were seeded 1 day prior to treatment in 96 well plates at a concentration of 2 × 10^5 cells per mL in 100 μL of medium (2 × 10^4 cells per well). Then cells were pre-incubated with the compounds in triplicate in a dilution series in triplicate from 2–100 μM (5 mM stock solutions in DMSO diluted from 100 μM to 3 μM; untreated cells with DMSO as a negative control) in 50 μl of the media for 1 hour. Afterwards, 40 μL were removed from each well before the addition of 90 μL of the media, followed by incubation for 24 hours at 37 °C, 5% CO2. Then, 10 μL of alamarBlue® (Invitrogen) was added to each well before a 2 hour incubation prior to assessing cell viability using a fluorescent plate reader (Biotek; Ex 560 nm/Em 600 nm). All data were measured in triplicate on a minimum of two occasions to ensure a robust data set was collected. The ED50 values were calculated from the dose response results achieved from the serial dilutions. […]
(§10) Cells were counted using a Neubauer Improved
(§11) Haemocytometer. […]
(§12) µM to 3 µM; untreated cells with DMSO as a negative control) in 50 µl of the media for 1 hour.
(§13) Afterwards, 40 µL were removed from each well before the addition of 90 µL of the media, followed by incubation for 24 hours at 37 °C, 5% CO2. Then, 10 µL of alamarBlue® (Invitrogen) was added to each well before a 2 hour incubation prior to assessing cell viability using a fluorescent plate reader (Biotek; Ex 560 nm / Em 600 nm). All data was measured in triplicate on a minimum of two occasions to ensure a robust data set was collected. The ED50 values were calculated from the dose response results achieved from the serial dilutions.
(§14) Skin Cell Toxicity assay with HaCaT […]
(§15) alamarBlue® (Invitrogen) for cell viability detection. HaCaT cells were subcultured at 37 °C, 5% CO2 in DMEM high glucose supplemented with heat-inactivated foetal bovine sera (FBS, 10%; Biosera Ltd) and penicillin/streptomycin (P/S, 1%). Cells were counted using a Neubauer Improved Haemocytometer. HaCaT cells were seeded in the plates 24 hours prior to treatment in 96 well plates at a concentration of 2x10^5 cells/mL in 100 µL of medium (2x10^4 cells/well).
(§16) Empty wells were filled with 100 µL PBS. After 24 hours, cells were incubated with the compounds in a dilution series in triplicate from 2 – 100 µM (5 mM stock solutions in DMSO diluted from 100 µM to 3 µM; Amphotericin B was used as a positive control and untreated cells with DMSO as a negative control) in 50 µL of the media for 1 hour. Afterwards, 40 µl was removed from each well, 90 µL of medium was added to each well and the cells incubated for 24 hours at 37 °C, 5% CO2. 10 µL of alamarBlue® (Invitrogen) was added to each well before […]

[5] = Skin cell toxicity assay with HaCaT (alamarBlue); format: cell-based, human; conditions: human, HaCaT cells (keratinocytes), ED50 HaCaT
Experimental: as §7, §8, §9, §10, §11, §12, §13, §14, §15, §16

[6] = test system: Staphylococcus aureus (3R7089 strain Oxford/ATCC9144); format: cell-based; conditions: lowest concentration completely inhibiting growth, 37 °C, 16 h; range 2–100 μM
Experimental: as §1, §2, §3
as §1, with “(W3110 / ATCC27325, F-, λ-,” for “(W3110/ATCC27325, F^–, λ^–,”, “Oxford / ATCC9144)” for “Oxford/ATCC9144)”, “°C.” for “°C. A single colony was selected and placed in 5 mL of Iso-sensitest broth (Oxoid, ThermoScientific) and incubated with shaking for 16–18 h at 37 °C to provide liquid cultures for testing.”
as §4, §5, §6

[7] = test system: S. epidermidis; set-up: method as in PMID 10681325, PMID 3299384; conditions: cited from earlier work
[8] = test system: S. aureus; set-up: method as in PMID 10681325, PMID 3299384; conditions: cited from earlier work
[9] = test system: E. coli; set-up: method as in PMID 10681325, PMID 3299384; conditions: cited from earlier work
[10] = test system: E. coli; set-up: method as in PMID 10681325; conditions: cited from earlier work

N=C(N)NCCCCNCC(=O)N(CC(=O)N(CC(=O)N(CCCCNC(=N)N)CC(=O)N(CC(=O)N(CC(=O)N(CCCCNC(=N)N)CC(=O)N(CC(=O)N(CC(=O)N(CCCCNC(=N)N)CC(=O)N(CC(=O)N(CC(N)=O)Cc1ccccc1)Cc1ccccc1)Cc1ccccc1)Cc1ccccc1)Cc1ccccc1)Cc1ccccc1)Cc1ccccc1)Cc1ccccc1 [Peptoid 33, (NhArgNpheNphe)4] (H-[NhArg][Nphe][Nphe][NhArg][Nphe][Nphe][NhArg][Nphe][Nphe][NhArg][Nphe][Nphe]-NH2)
MIC E. coli [1]: 6 µM | MIC S. epidermidis [2]: 2 µM | MIC P. aeruginosa [3]: 25 µM | ED50 HaCaT [4]: >100 µM | CC50 at 24 h [5]: 100 µM

C[C@@H](c1ccccc1)N(CC(N)=O)C(=O)CN(C(=O)CN(CCCCNC(=N)N)C(=O)CN(C(=O)CN(C(=O)CN(CCCCNC(=N)N)C(=O)CN(C(=O)CN(C(=O)CN(CCCCN)C(=O)CN(C(=O)CN(C(=O)CNCCCCN)[C@@H](C)c1ccccc1)[C@@H](C)c1ccccc1)[C@@H](C)c1ccccc1)[C@@H](C)c1ccccc1)[C@@H](C)c1ccccc1)[C@@H](C)c1ccccc1)[C@@H](C)c1ccccc1 [Peptoid 41, (NLysNspeNspe)2(NhArgNspeNspe)2] (H-[Nlys][Nspe][Nspe][Nlys][Nspe][Nspe][NhArg][Nspe][Nspe][NhArg][Nspe][Nspe]-NH2)
MIC S. aureus [6]: 17 µM | MIC E. coli [1]: 17 µM | MIC P. aeruginosa [3]: 34 µM | ED50 HaCaT [4]: >100 µM | CC50 at 24 h [5]: 100 µM

Magainin 2
MIC S. epidermidis [7]: 10 μg mL^–1 | MIC S. epidermidis ([7]; value in brackets, in μM): 4 µM | MIC S. aureus [8]: 50 μg mL^–1 | MIC S. aureus ([8]; value in brackets, in μM): 20 µM | MIC E. coli [9]: 5 μg mL^–1 | MIC E. coli ([9]; value in brackets, in μM): 2 µM

cecropin A (KWKLFKKIEKVGQNIRDGIIKAGPAVAVVGQATQIAK; ends and bridges not checked; UniProt P01507 27-63, looked up) [natural antimicrobial peptide (AMP) described in the literature]
concentration shown to kill 90% of E. coli [10]: 2 µM
